Results as given in ChEMBL document CHEMBL3991601, “The target landscape of clinical kinase drugs” (Science, 2017).
Active and inactive are the calls of the source. For most assays here, no stated cut-off is given here; in the data, actives have a measured Kd and inactives only a lower limit.

biological target: GTP-binding protein 4 (Homo sapiens, UniProt Q9BZE4)

Structure (SMILES) | Kd
Cn1ncc(Cl)c1-c1cc(C(=O)N[C@H](CN)Cc2cccc(F)c2)sc1Cl [AFURESERTIB] | > 30 µM (inactive)
COc1cc(N2CCC(N3CCN(C)CC3)CC2)ccc1Nc1ncnc(Nc2ccccc2S(=O)(=O)C(C)C)n1 [ASP-3026] | 0.009 µM
CNS(=O)(=O)Nc1nccc(Cc2c(C)c3ccc(Oc4ncccn4)cc3oc2=O)c1F [AVUTOMETINIB] | > 30 µM (inactive)
COc1cc(CCc2cc(NC(=O)c3ccc(N4C[C@@H](C)N[C@@H](C)C4)cc3)n[nH]2)cc(OC)c1 [AZD-4547] | > 30 µM (inactive)
Cc1cc([C@@H](C)Nc2ccccc2C(=O)O)c2nc(N3CCOCC3)cc(=O)n2c1 [AZD-6482] | > 30 µM (inactive)
COc1ccc(-c2ccc3c(N4CCOC[C@@H]4C)nc(N4CCOC[C@@H]4C)nc3n2)cc1CO [AZD-8055] | > 30 µM (inactive)

biological target: Tyrosine-protein kinase ABL2 (Homo sapiens, UniProt P42684)
Sequence (P42684 whole entry): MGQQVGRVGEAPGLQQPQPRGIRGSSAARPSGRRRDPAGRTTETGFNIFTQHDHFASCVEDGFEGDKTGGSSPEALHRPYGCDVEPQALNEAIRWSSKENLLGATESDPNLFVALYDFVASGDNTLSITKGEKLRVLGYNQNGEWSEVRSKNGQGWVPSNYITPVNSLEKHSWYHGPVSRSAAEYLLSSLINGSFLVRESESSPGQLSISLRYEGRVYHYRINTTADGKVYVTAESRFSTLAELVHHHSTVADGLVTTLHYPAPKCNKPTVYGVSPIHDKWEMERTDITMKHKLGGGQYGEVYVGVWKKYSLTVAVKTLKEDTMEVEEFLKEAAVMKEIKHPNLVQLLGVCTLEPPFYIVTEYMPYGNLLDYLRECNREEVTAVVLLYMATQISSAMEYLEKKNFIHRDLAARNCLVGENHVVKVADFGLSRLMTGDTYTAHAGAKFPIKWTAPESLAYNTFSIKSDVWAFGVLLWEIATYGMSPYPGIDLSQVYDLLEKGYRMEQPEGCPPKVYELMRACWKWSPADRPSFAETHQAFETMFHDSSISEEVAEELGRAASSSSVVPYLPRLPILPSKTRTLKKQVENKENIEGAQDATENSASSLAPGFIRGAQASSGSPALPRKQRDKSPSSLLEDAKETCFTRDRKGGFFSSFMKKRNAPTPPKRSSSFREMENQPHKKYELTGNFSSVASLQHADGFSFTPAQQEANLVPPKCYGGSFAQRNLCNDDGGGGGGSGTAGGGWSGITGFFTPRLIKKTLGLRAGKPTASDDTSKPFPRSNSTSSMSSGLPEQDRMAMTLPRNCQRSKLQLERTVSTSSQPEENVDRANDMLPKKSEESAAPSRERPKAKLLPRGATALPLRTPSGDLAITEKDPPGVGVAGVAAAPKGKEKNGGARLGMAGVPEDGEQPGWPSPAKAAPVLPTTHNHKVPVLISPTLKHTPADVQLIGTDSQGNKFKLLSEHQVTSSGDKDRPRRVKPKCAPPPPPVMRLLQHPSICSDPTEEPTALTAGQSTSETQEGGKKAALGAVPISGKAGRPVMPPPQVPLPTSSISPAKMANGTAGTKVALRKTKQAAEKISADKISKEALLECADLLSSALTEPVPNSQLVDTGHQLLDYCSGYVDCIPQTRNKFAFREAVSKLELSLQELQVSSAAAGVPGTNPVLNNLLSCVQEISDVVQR

Structure (SMILES) | Kd
Cn1ncc(Cl)c1-c1cc(C(=O)N[C@H](CN)Cc2cccc(F)c2)sc1Cl [AFURESERTIB] | > 30 µM (inactive)
COc1cc(N2CCC(N3CCN(C)CC3)CC2)ccc1Nc1ncnc(Nc2ccccc2S(=O)(=O)C(C)C)n1 [ASP-3026] | > 30 µM (inactive)
CNS(=O)(=O)Nc1nccc(Cc2c(C)c3ccc(Oc4ncccn4)cc3oc2=O)c1F [AVUTOMETINIB] | > 30 µM (inactive)
COc1cc(CCc2cc(NC(=O)c3ccc(N4C[C@@H](C)N[C@@H](C)C4)cc3)n[nH]2)cc(OC)c1 [AZD-4547] | > 30 µM (inactive)
Cc1cc([C@@H](C)Nc2ccccc2C(=O)O)c2nc(N3CCOCC3)cc(=O)n2c1 [AZD-6482] | > 30 µM (inactive)
COc1ccc(-c2ccc3c(N4CCOC[C@@H]4C)nc(N4CCOC[C@@H]4C)nc3n2)cc1CO [AZD-8055] | > 30 µM (inactive)

biological target: T1, Serine/threonine-protein kinase ULK3 (Homo sapiens, UniProt Q6PHR2)
T1 sequence (Q6PHR2 whole entry): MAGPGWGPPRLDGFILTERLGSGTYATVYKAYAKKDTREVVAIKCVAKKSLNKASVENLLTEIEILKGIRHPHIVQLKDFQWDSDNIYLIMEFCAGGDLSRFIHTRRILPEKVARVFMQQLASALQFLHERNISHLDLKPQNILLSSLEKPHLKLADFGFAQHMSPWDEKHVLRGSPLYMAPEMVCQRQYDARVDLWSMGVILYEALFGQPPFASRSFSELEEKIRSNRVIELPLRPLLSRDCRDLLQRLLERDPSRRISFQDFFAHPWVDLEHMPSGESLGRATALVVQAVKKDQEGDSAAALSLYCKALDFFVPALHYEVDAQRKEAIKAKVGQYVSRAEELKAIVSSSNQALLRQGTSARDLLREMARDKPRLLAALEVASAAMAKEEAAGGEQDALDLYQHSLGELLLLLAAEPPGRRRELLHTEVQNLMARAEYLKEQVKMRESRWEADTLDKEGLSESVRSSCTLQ

Structure (SMILES) | Kd
Cn1ncc(Cl)c1-c1cc(C(=O)N[C@H](CN)Cc2cccc(F)c2)sc1Cl [AFURESERTIB] | > 30 µM (inactive)
COc1cc(N2CCC(N3CCN(C)CC3)CC2)ccc1Nc1ncnc(Nc2ccccc2S(=O)(=O)C(C)C)n1 [ASP-3026] | > 30 µM (inactive)
CNS(=O)(=O)Nc1nccc(Cc2c(C)c3ccc(Oc4ncccn4)cc3oc2=O)c1F [AVUTOMETINIB] | > 30 µM (inactive)
COc1cc(CCc2cc(NC(=O)c3ccc(N4C[C@@H](C)N[C@@H](C)C4)cc3)n[nH]2)cc(OC)c1 [AZD-4547] | > 30 µM (inactive)
Cc1cc([C@@H](C)Nc2ccccc2C(=O)O)c2nc(N3CCOCC3)cc(=O)n2c1 [AZD-6482] | > 30 µM (inactive)
COc1ccc(-c2ccc3c(N4CCOC[C@@H]4C)nc(N4CCOC[C@@H]4C)nc3n2)cc1CO [AZD-8055] | > 30 µM (inactive)

biological target: Ephrin type-A receptor 5 (Homo sapiens, UniProt P54756)
Sequence (P54756 whole entry): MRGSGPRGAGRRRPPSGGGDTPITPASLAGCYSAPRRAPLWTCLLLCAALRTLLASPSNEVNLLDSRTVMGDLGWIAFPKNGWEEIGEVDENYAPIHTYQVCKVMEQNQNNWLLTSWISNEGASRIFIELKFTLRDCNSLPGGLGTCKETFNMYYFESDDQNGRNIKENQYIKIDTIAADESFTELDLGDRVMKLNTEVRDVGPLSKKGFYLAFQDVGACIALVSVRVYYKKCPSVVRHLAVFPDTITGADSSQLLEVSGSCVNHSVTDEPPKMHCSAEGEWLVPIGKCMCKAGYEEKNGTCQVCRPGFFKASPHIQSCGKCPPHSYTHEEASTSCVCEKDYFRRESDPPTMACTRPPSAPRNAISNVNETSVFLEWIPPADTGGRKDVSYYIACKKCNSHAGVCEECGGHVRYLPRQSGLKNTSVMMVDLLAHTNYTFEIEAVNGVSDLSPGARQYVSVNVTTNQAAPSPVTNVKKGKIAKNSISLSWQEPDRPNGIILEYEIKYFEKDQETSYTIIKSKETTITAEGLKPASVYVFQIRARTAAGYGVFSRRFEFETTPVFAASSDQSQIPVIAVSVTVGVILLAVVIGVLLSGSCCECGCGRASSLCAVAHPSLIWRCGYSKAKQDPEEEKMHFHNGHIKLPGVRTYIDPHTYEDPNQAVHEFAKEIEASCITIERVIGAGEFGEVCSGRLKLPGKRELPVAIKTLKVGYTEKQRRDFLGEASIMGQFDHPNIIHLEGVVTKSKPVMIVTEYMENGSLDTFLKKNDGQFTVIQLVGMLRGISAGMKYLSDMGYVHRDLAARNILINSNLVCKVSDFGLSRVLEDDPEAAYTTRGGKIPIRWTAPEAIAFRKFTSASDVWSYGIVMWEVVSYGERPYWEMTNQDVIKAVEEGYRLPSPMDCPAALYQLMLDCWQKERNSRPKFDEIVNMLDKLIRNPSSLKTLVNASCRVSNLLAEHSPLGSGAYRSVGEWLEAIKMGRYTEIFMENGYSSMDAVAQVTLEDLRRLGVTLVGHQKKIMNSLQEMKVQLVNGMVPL

Structure (SMILES) | Kd
Cn1ncc(Cl)c1-c1cc(C(=O)N[C@H](CN)Cc2cccc(F)c2)sc1Cl [AFURESERTIB] | > 30 µM (inactive)
COc1cc(N2CCC(N3CCN(C)CC3)CC2)ccc1Nc1ncnc(Nc2ccccc2S(=O)(=O)C(C)C)n1 [ASP-3026] | > 30 µM (inactive)
CNS(=O)(=O)Nc1nccc(Cc2c(C)c3ccc(Oc4ncccn4)cc3oc2=O)c1F [AVUTOMETINIB] | > 30 µM (inactive)
COc1cc(CCc2cc(NC(=O)c3ccc(N4C[C@@H](C)N[C@@H](C)C4)cc3)n[nH]2)cc(OC)c1 [AZD-4547] | > 30 µM (inactive)
Cc1cc([C@@H](C)Nc2ccccc2C(=O)O)c2nc(N3CCOCC3)cc(=O)n2c1 [AZD-6482] | > 30 µM (inactive)
COc1ccc(-c2ccc3c(N4CCOC[C@@H]4C)nc(N4CCOC[C@@H]4C)nc3n2)cc1CO [AZD-8055] | > 30 µM (inactive)

biological target: T2, Serine/threonine-protein kinase Nek3 (Homo sapiens, UniProt P51956)
T2 sequence (P51956 whole entry): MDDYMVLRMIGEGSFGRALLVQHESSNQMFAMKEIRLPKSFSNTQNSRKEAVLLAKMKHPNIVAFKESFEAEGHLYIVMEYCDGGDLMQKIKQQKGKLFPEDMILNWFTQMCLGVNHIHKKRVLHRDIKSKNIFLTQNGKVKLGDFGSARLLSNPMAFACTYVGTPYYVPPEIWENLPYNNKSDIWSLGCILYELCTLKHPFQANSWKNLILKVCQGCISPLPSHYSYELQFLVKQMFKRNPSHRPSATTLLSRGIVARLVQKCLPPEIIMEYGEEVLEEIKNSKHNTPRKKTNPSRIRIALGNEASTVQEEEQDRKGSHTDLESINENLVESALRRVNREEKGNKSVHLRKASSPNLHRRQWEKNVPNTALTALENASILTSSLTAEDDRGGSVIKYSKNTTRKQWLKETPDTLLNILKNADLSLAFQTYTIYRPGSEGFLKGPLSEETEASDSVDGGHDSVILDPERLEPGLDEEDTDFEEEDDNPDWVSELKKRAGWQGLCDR

Structure (SMILES) | Kd
Cn1ncc(Cl)c1-c1cc(C(=O)N[C@H](CN)Cc2cccc(F)c2)sc1Cl [AFURESERTIB] | > 30 µM (inactive)
COc1cc(N2CCC(N3CCN(C)CC3)CC2)ccc1Nc1ncnc(Nc2ccccc2S(=O)(=O)C(C)C)n1 [ASP-3026] | > 30 µM (inactive)
CNS(=O)(=O)Nc1nccc(Cc2c(C)c3ccc(Oc4ncccn4)cc3oc2=O)c1F [AVUTOMETINIB] | > 30 µM (inactive)
COc1cc(CCc2cc(NC(=O)c3ccc(N4C[C@@H](C)N[C@@H](C)C4)cc3)n[nH]2)cc(OC)c1 [AZD-4547] | > 30 µM (inactive)
Cc1cc([C@@H](C)Nc2ccccc2C(=O)O)c2nc(N3CCOCC3)cc(=O)n2c1 [AZD-6482] | > 30 µM (inactive)
COc1ccc(-c2ccc3c(N4CCOC[C@@H]4C)nc(N4CCOC[C@@H]4C)nc3n2)cc1CO [AZD-8055] | > 30 µM (inactive)

biological target: T3, EKC/KEOPS complex subunit TP53RK (Homo sapiens, UniProt Q96S44)
T3 sequence (Q96S44 whole entry): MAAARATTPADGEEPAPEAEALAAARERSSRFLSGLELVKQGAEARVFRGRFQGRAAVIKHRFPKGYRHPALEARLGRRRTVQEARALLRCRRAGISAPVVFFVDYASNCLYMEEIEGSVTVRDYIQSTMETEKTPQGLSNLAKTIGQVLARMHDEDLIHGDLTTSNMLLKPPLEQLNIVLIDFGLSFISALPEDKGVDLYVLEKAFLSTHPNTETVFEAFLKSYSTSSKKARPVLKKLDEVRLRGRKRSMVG

Structure (SMILES) | Kd
Cn1ncc(Cl)c1-c1cc(C(=O)N[C@H](CN)Cc2cccc(F)c2)sc1Cl [AFURESERTIB] | > 30 µM (inactive)
COc1cc(N2CCC(N3CCN(C)CC3)CC2)ccc1Nc1ncnc(Nc2ccccc2S(=O)(=O)C(C)C)n1 [ASP-3026] | > 30 µM (inactive)
CNS(=O)(=O)Nc1nccc(Cc2c(C)c3ccc(Oc4ncccn4)cc3oc2=O)c1F [AVUTOMETINIB] | > 30 µM (inactive)
COc1cc(CCc2cc(NC(=O)c3ccc(N4C[C@@H](C)N[C@@H](C)C4)cc3)n[nH]2)cc(OC)c1 [AZD-4547] | > 30 µM (inactive)
Cc1cc([C@@H](C)Nc2ccccc2C(=O)O)c2nc(N3CCOCC3)cc(=O)n2c1 [AZD-6482] | > 30 µM (inactive)
COc1ccc(-c2ccc3c(N4CCOC[C@@H]4C)nc(N4CCOC[C@@H]4C)nc3n2)cc1CO [AZD-8055] | > 30 µM (inactive)

biological target: T4, Serine/threonine-protein kinase 3 (Homo sapiens, UniProt Q13188)
T4 sequence (Q13188 whole entry): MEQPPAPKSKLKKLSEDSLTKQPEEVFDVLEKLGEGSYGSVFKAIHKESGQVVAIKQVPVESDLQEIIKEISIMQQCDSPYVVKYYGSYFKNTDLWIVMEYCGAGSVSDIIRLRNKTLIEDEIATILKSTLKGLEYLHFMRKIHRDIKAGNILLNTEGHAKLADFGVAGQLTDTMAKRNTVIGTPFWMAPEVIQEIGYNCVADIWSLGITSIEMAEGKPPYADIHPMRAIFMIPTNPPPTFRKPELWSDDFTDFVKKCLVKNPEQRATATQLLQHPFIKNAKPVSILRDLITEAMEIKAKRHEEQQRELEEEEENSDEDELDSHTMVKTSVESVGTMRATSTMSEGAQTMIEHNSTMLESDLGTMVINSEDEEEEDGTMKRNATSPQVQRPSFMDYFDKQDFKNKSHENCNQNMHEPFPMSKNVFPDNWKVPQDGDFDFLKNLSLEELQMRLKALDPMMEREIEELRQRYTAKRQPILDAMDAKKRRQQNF

Structure (SMILES) | Kd
Cn1ncc(Cl)c1-c1cc(C(=O)N[C@H](CN)Cc2cccc(F)c2)sc1Cl [AFURESERTIB] | > 30 µM (inactive)
COc1cc(N2CCC(N3CCN(C)CC3)CC2)ccc1Nc1ncnc(Nc2ccccc2S(=O)(=O)C(C)C)n1 [ASP-3026] | > 30 µM (inactive)
CNS(=O)(=O)Nc1nccc(Cc2c(C)c3ccc(Oc4ncccn4)cc3oc2=O)c1F [AVUTOMETINIB] | > 30 µM (inactive)
COc1cc(CCc2cc(NC(=O)c3ccc(N4C[C@@H](C)N[C@@H](C)C4)cc3)n[nH]2)cc(OC)c1 [AZD-4547] | > 30 µM (inactive)
Cc1cc([C@@H](C)Nc2ccccc2C(=O)O)c2nc(N3CCOCC3)cc(=O)n2c1 [AZD-6482] | > 30 µM (inactive)
COc1ccc(-c2ccc3c(N4CCOC[C@@H]4C)nc(N4CCOC[C@@H]4C)nc3n2)cc1CO [AZD-8055] | > 30 µM (inactive)

biological target: T5, Dual specificity mitogen-activated protein kinase kinase 5 (Homo sapiens, UniProt Q13163)
T5 sequence (Q13163 whole entry): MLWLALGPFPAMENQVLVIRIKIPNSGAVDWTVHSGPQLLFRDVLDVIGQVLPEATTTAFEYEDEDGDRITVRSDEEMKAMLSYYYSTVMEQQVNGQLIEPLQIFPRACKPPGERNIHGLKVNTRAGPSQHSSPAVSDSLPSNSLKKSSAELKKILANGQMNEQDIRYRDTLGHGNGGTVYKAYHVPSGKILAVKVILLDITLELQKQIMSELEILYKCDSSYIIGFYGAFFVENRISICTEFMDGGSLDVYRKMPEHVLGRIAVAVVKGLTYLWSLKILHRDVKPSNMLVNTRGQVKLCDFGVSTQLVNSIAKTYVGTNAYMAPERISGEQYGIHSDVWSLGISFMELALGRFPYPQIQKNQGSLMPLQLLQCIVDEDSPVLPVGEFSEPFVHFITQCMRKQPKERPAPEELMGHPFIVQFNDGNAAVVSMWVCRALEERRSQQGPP

Structure (SMILES) | Kd
Cn1ncc(Cl)c1-c1cc(C(=O)N[C@H](CN)Cc2cccc(F)c2)sc1Cl [AFURESERTIB] | > 30 µM (inactive)
COc1cc(N2CCC(N3CCN(C)CC3)CC2)ccc1Nc1ncnc(Nc2ccccc2S(=O)(=O)C(C)C)n1 [ASP-3026] | > 30 µM (inactive)
CNS(=O)(=O)Nc1nccc(Cc2c(C)c3ccc(Oc4ncccn4)cc3oc2=O)c1F [AVUTOMETINIB] | 2 µM (active)
COc1cc(CCc2cc(NC(=O)c3ccc(N4C[C@@H](C)N[C@@H](C)C4)cc3)n[nH]2)cc(OC)c1 [AZD-4547] | > 30 µM (inactive)
Cc1cc([C@@H](C)Nc2ccccc2C(=O)O)c2nc(N3CCOCC3)cc(=O)n2c1 [AZD-6482] | > 30 µM (inactive)
COc1ccc(-c2ccc3c(N4CCOC[C@@H]4C)nc(N4CCOC[C@@H]4C)nc3n2)cc1CO [AZD-8055] | > 30 µM (inactive)
